# Results from patent US20130178534A1, “N-Nonanoylvanillylamine as an agent for reducing the appetite, as an agent for imparting a feeling of fullness and as a mood enhancer, and corresponding substance mixtures, orally consumable products and methods” (Symrise AG, priority 2012, published 2013).
# Key:
# SH-SY5Y cells [1] = assay: Release of dopamine by SH-SY5Y cells (Example 1); assay type: cell-based, Human; conditions: for T/C [%] release of dopamine: 3 minutes, normalised to control
# Description: (§1) Human neuroblastoma cells (SH-SY5Y, ATCC number CRL-2266) are used as the cell model. Cultivation takes place at 37° C. and 5% CO2 content with a mixture consisting of equal parts of Eagle's Minimum Essential Medium (MEM) and F12 medium (in each case with 10% FBS and 1% penicillin/streptomycin). For measurement of the release of dopamine and serotonin, the cells are harvested with trypsin and, after a vitality test by trypan blue staining, are sown in a defined cell number in 35 mm cell culture dishes.
# Method for measuring the release of dopamine:
# After stimulation of 1.25*10^6 human neuroblastoma cells (SH-SY5Y) for 3 minutes with 350 μl of Krebs-Ringer HEPES buffer, pH 5, with or without addition of N-nonanoylvanillylamine (wherein in the case of addition of N-nonanoylvanillylamine, concentrations of 0.1 μM, 1 μM and 10 μM are established in the Krebs-Ringer HEPES buffer), the supernatant is acidified with 1 N HCl and the dopamine content is determined by means of an enzyme-based detection method (dopamine ELISA, DLD Diagnostica, Hamburg, Germany). The cells are lysed with a buffer containing sodium lauryl sarcosinate, and the DNA content is determined by means of a NanoQuant plate (Tecan, Ménnendorf, Switzerland) for normalisation of the dopamine release. In the case of an ethanol control (EtOH control), no N-nonanoylvanillylamine is added to the Krebs-Ringer HEPES buffer, but ethanol is added to the buffer so that a 0.1% ethanolic Krebs-Ringer HEPES buffer solution is obtained. In the case of the positive control, acetylcholine is used instead of the N-nonanoylvanillylamine, a concentration of 100 μM acetylcholine being established in the Krebs-Ringer HEPES buffer.
# SH-SY5Y cells [2] = assay: Release of serotonin by SH-SY5Y cells (Example 3); assay type: cell-based, Human; conditions: for T/C [%] release of serotonin: normalised to control
# Description: as §1
# After stimulation of 1.25*10^6 human neuroblastoma cells (SH-SY5Y) for 3 minutes with 300 μl of Krebs-Ringer HEPES buffer, 0.1% ascorbic acid, pH 6.2, with or without addition of N-nonanoylvanillylamine (wherein in the case of addition of N-nonanoylvanillylamine, concentrations of 0.01 μM, 0.1 μM, 1 μM and 10 μM are established in the Krebs-Ringer HEPES buffer), the serotonin content is determined by means of an enzyme-based detection method (serotonin ELISA sensitive, […], Hamburg, Germany). The cells are lysed with a buffer containing sodium lauryl sarcosinate, and the DNA content is determined by means of a NanoQuant plate (Tecan, Ménnendorf, Switzerland) for normalisation of the serotonin release.
# [3] = cited from earlier work
# SH-SY5Y cells [4] = assay: Release of dopamine by SH-SY5Y cells with N-nonanoylvanillylamine and a TRPV1 inhibitor (Example 2); assay type: cell-based, Human
# Description: as §1
# After stimulation of 1.25*10^6 human neuroblastoma cells (SH-SY5Y) for 3 minutes with 350 μl of Krebs-Ringer HEPES buffer, pH 5, with or without addition of 1 μM N-nonanolyvanillylamine (wherein in the case of addition of N-nonanoylvanillylamine, a concentration of 1 μM is established in the Krebs-Ringer HEPES buffer) in combination with different application-relevant amounts of the selective TRPV1 inhibitor trans-4-tert-butylcyclohexanol (so that concentrations of 25, 50 and 80 μM of trans-4-tert-butylcyclo-hexanol are established in the Krebs-Ringer HEPES buffer), the supernatant is acidified with 1 N HCl and the dopamine content is determined by means of an enzyme-based detection method (dopamine ELISA, DLD Diagnostica, Hamburg, Germany). The cells are lysed with a buffer containing sodium lauryl sarcosinate, and the DNA content is determined by means of a NanoQuant plate (Tecan, Ménnendorf, Switzerland) for normalisation of the dopamine release. For comparison purposes, the tests were repeated without the addition of N-nonanoylvanillylamine.
# SH-SY5Y cells [5] = assay: Release of serotonin by SH-SY5Y cells with N-nonanoylvanillylamine and a TRPV1 inhibitor (Example 4); assay type: cell-based, Human
# Description: as §1
# After stimulation of 1.25*10^6 human neuroblastoma cells (SH-SY5Y) for 3 minutes with 300 μl of Krebs-Ringer HEPES buffer (0.1% ascorbic acid, pH 6.2), with or without addition of N-nonanoylvanillylamine (so that a concentration of 1 μM N-nonanoylvanillylamine is established in the Krebs-Ringer HEPES buffer) in combination with different application-relevant amounts of the selective TRPV1 inhibitor trans-4-tert-butylcyclohexanol, the serotonin content is determined by means of an enzyme-based detection method (serotonin ELISA sensitive, DLD Diagnostica, Hamburg, Germany). The cells are lysed with a buffer containing sodium lauryl sarcosinate, and the DNA content is determined by means of a NanoQuant plate in a plate reader (Tecan, Ménnendorf, Switzerland) for normalisation of the serotonin release.
# [6] = Kollmannsberger 2007; cited from earlier work
# [7] = N-nonanoylvanillylamine 1 μM + 25 μM trans-4-tert-butylcyclohexanol
# [8] = N-nonanoylvanillylamine 1 μM + 50 μM trans-4-tert-butylcyclohexanol
# [9] = N-nonanoylvanillylamine 1 μM + 80 μM trans-4-tert-butylcyclohexanol
# [10] = N-nonanoylvanillylamine 1 μM alone
# [11] = 25 μM alone, without N-nonanoylvanillylamine
# [12] = 50 μM alone, without N-nonanoylvanillylamine
# [13] = 80 μM alone, without N-nonanoylvanillylamine
structure (smiles),measurement,setting,value
"CC(=O)OCC[N+](C)(C)C [Acetylcholine, acetylcholine, reference compound]",T/C [%] release of dopamine,SH-SY5Y cells [1]; 100 μM (positive control),139.84%
"[Cl-].[K+] [KCl, potassium chloride, reference compound]",T/C [%] release of serotonin,SH-SY5Y cells [2]; 50 mM (positive control),153.48%
CCCCCCCCC(=O)NCc1ccc(O)c(OC)c1 [N-Nonanoylvanillylamine],T/C [%] release of dopamine,SH-SY5Y cells [1]; 0.1 μM,697.84%
same,increase in the amount of dopamine released by SH-SY5Y cells,SH-SY5Y cells [1]; 100 nM,seven-fold increase
same,T/C [%] release of dopamine,SH-SY5Y cells [1]; 1 μM,1350.94%
same,T/C [%] release of dopamine,SH-SY5Y cells [1]; 10 μM,1774.98%
same,"stimulating the release of dopamine, compared with the respective control",SH-SY5Y cells [1]; approximately 0.03 mg/kg (0.1 μM),about 700%
same,EFSA safety rating,[3]; rated in FGE.86,no safety concern
same,increase in the amount of dopamine released,SH-SY5Y cells [4]; 1 μM,five-fold increase
same,influence of simultaneous stimulation with TRPV1 inhibitor trans-4-tert-butylcyclohexanol on the dopamine release,"SH-SY5Y cells [4]; 1 μM N-nonanoylvanillylamine, inhibitor 25, 50 and 80 μM",not significantly influenced
same,T/C [%] release of dopamine,SH-SY5Y cells [4]; [7],433.55%
same,T/C [%] release of dopamine,SH-SY5Y cells [4]; [8],456.80%
same,T/C [%] release of dopamine,SH-SY5Y cells [4]; [9],422.48%
same,T/C [%] release of dopamine,SH-SY5Y cells [4]; [10],501.20%
same,influence of addition of TRPV1 inhibitor trans-4-tert-butylcyclohexanol on the serotonin release,SH-SY5Y cells [5]; 1 μM N-nonanoylvanillylamine,not significantly influenced
same,T/C [%] release of serotonin,SH-SY5Y cells [5]; [7],154.86%
same,T/C [%] release of serotonin,SH-SY5Y cells [5]; [8],128.74%
same,T/C [%] release of serotonin,SH-SY5Y cells [5]; [9],140.81%
same,T/C [%] release of serotonin,SH-SY5Y cells [5]; N-nonanoylvanillylamine 1 μM + 200 μM trans-4-tert-butylcyclohexanol,181.93%
same,T/C [%] release of serotonin,SH-SY5Y cells [5]; [10],151.75%
same,detection threshold,[6],0.107 mg/kg
same,stimulant threshold,[6],0.054 mg/kg
same,T/C [%] release of serotonin,"SH-SY5Y cells [2]; 0.01 μM, 3 minutes",191.35%
same,amount of serotonin released by SH-SY5Y cells,"SH-SY5Y cells [2]; 0.1 μM and above, p<0.005",increases highly significantly
same,T/C [%] release of serotonin,"SH-SY5Y cells [2]; 0.1 μM, 3 minutes",226.44%
same,T/C [%] release of serotonin,"SH-SY5Y cells [2]; 1 μM, 3 minutes",272.12%
same,T/C [%] release of serotonin,"SH-SY5Y cells [2]; 10 μM, 3 minutes",185.65%
same,"stimulating the release of serotonin in neurons, maximum, compared with the respective control",SH-SY5Y cells [2]; concentration range 0.01 μM to 10 μM (0.003 mg/kg to 3 mg/kg),about 270%
"COc1cc(CNC(=O)CCCC/C=C/C(C)C)ccc1O [capsaicin, reference compound]",rating for genotoxicity,[3]; EFSA / Scientific Committee on Food opinion 2002,negatively rated as having genotoxic potential
"CC(C)(C)[C@H]1CC[C@H](O)CC1 [trans-4-tert-butylcyclohexanol, reference compound]",T/C [%] release of dopamine,SH-SY5Y cells [4]; [11],84.47%
same,T/C [%] release of dopamine,SH-SY5Y cells [4]; [12],38.19%
same,T/C [%] release of dopamine,SH-SY5Y cells [4]; [13],63.53%
same,T/C [%] release of serotonin,SH-SY5Y cells [5]; [11],91.07%
same,T/C [%] release of serotonin,SH-SY5Y cells [5]; [12],101.39%
same,T/C [%] release of serotonin,SH-SY5Y cells [5]; [13],84.129%
same,T/C [%] release of serotonin,"SH-SY5Y cells [5]; 200 μM alone, without N-nonanoylvanillylamine",110.99%
